Key:
[1] = test system: B. longum subsp. longum; test: Short-term colonic incubation, population of B. longum subsp. longum (16S Illumina sequencing with flow cytometry); assay type: cell-based, Bifidobacterium longum subsp. longum; settings: after 6 and 48 hours of incubation; synbiotic compared to the probiotic alone
Method: (§1) The aim of this project was to evaluate the properties of a synbiotic combination of Bifidobacterium longum subsp. longum ATCC BAA-999 and LNT using short-term colonic incubations (48 h), in which the proximal colon environment of a baby was simulated. The evaluation was based on the effects on microbial metabolic activity (SCFA, lactate and ammonium production) and community composition (16Stargeted Illumina sequencing), through comparison with a blank (no treatment), a probiotic (containing only the B. longum subsp. longum strain) and a prebiotic (containing only LNT).
(§2) In these experiments, a simplified simulation of the continuous Simulator of the Human Microbial Ecosystem (SHIME®) was used. […]
(§3) To account for biological variability, all tests were performed in triplicate, resulting in 12 independent incubations. […] Ammonium concentrations were measured at the start and after 48 h of incubation. The effect on the gut microbial community was assessed through Illumina sequencing at the start of the incubation and after 6 h, and 48 h. […]

[2] = test system: Streptococcus salivarius; test: Short-term colonic incubation, population of Streptococcus salivarius (16S Illumina sequencing with flow cytometry); assay type: cell-based
Method: as §1, §2, §3

## CC(=O)N[C@H]1[C@H](O[C@H]2[C@@H](O)[C@@H](CO)O[C@@H](O[C@H]3[C@H](O)[C@@H](O)C(O)O[C@@H]3CO)[C@@H]2O)O[C@H](CO)[C@@H](O)[C@@H]1O[C@@H]1O[C@H](CO)[C@H](O)[C@H](O)[C@H]1O (stereo partly drawn) [prebiotic, Lacto-N-tetraose]
[1]
  population of B. longum subsp. longum (in words): no effect
[2]; 48 hours vs 6 hours
  population of S. salivarius at 48 hours compared to the population at 6 hours (in words): strongly decreases
[2]; after 6 and 48 hours of incubation
  boost of the population of Streptococcus salivarius (in words): neither the probiotic alone, nor the prebiotic alone were able to boost
